Laboratory results published in patent US20060167106A1, “Compounds acting at the centrosome” (priority 2004, published 2006).
Entries after “also recorded” stand apart in the source; their conditions may differ.

Experiments:
[1] = system: MDA-435 breast cancer cells; test: Multi-ubiquitin Western blotting in MDA-435 cells; assay type: cell-based; details: for increase of ubiquitinated proteins of the cell lysates: 500 nM
Description: Louis, Mo.) immediately before use, on ice for 1 hour. After scraping, the lysates were cleared by centrifugation at 13,000 RPM for 10 minutes at 4° C. Protein content was determined using a Bradford assay and bovine serum albumin as a standard (Bio-Rad Laboratories, Hercules, Calif.). Samples were solubilized by boiling in SDS sample buffer and subjected to SDS-PAGE. The proteins were subsequently transferred to a PVDF membrane (Bio-Rad, Hercules, Calif.). […] The alkaline phosphatase-conjugated secondary antibodies (Invitrogen, Carlsbad, Calif.) were diluted in blocking buffer and incubated with the blot for 1 hour at room temperature. The secondary antibodies were detected by the Western Breeze Chemiluminescent Kit (Invitrogen, Carlsbad, Calif.) and imaged using a Kodak 440 Image Station. Proteins targeted for degradation by the ubiquitin-dependent proteolytic pathway are tagged with multi-ubiquitin molecules. […] In this assay, accumulation of multi-ubiquitinated proteins in the cells is indicative of the impairment of proteasome activity.

CV-1 cells [2] = test: Actin (phalloidin) fluorescence in CV-1 cells; assay type: cell-based, monkey; details: 0.5 μM, 6 hours
Description: CV-1 cells were obtained from ATCC and grown in chamber slides (Labtek, Campbell, Calif.) for 24 hours in 90% Eagle's MEM with 10% BCS before treatment. […] Cells were then washed in PBS and fixed in 3.7% formaldehyde solution in PBS for 10 minutes at room temperature. Cells were washed again twice in PBS for 5 minutes before incubation with AlexaFluoR488 conjugated phalloidin (1:40 dilution; Molecular Probes, Eugene, Oreg.) and 1% bovine serum albumin (BSA) in PBS at 37° C. for 30 minutes.

CV-1 cells [3] = test: Cell morphology, time-lapse imaging of CV-1 cells; assay type: cell-based, monkey; details: 500 nM
Description: CV-1 cells and CHO cells were previously cultured in 2-well chambered cover-slips for 48 hours and incubated in 15 mM HEPES buffer-containing Ham's F-12/DMEM medium with different compounds. The cells were imaged using phase contrast settings with the Nikon TE300 microscope/digital imaging system. The cells were imaged ‘simultaneously’ under control of MetaVue software by capturing frames for cells from different conditions at the same time period using a motorized automated XYZ stage.
[…] […] A very low concentration of Taxol (10 nM) was used.

Hsp70 = Hsp70 Western blotting in MDA-435 cells; assay type: cell-based; details: 0.5 μM; for percentage change in Hsp70 expression relative to DMSO control: normalized to background and GAPDH
Description: Calculations of the percentage changes were made by using the automated band analysis tools of the Kodak 1D (v.3.6.3) program. Band intensities were normalized to background and GAPDH.
MDA-435 breast cancer cells were grown in 100 mm plastic-tissue culture dishes and treated for 6 and 24 hours with 0.5 μM Taxol, Compound 1, Taxol+Compound 1, MG132, ALLN, or DMSO. After treatment, cells were washed in PBS and cell lysates were prepared by adding 100 μL of lysis buffer, which contained 20 mM Tris-HCl (pH 7.5), 150 mM NaCl, 1 mM Na2EDTA, 1 mM EGTA, 1% Triton, 2.5 mM sodium pyrophosphate, 1 mM β-glycerophosphate, 1 mM Na3VO4 and 1 μg/ml leupeptin (Cell Signaling Technology, Beverly, Mass.) supplemented with 1 mM PMSF (Sigma, St. Louis, Mo.) immediately before use, on ice for 1 hour. After scraping, the lysates were cleared by centrifugation at 13,000 RPM for 10 minutes at 4° C. Protein content was determined using a Bradford assay and bovine serum albumin as a standard (Bio-Rad Laboratories, Hercules, Calif.). Samples were solubilized by boiling in SDS sample buffer and subjected to SDS-PAGE. The proteins were subsequently transferred to a PVDF membrane (Bio-Rad, Hercules, Calif.). After blocking with 5% nonfat milk in TBS for 1 hour, the blots were incubated with a mouse monoclonal anti-Hsp70 antibody, which is specific for the inducible form of Hsp70 (Clone C92F3A-5, 1:1000 dilution, Stressgen Biotechnologies Corp., Victoria, B.C., Canada) or a rabbit polyclonal anti-GAPDH antibody (1:2000 dilution, Abcam, Cambridge, Mass.) for 2 hours at room temperature. The horseradish-peroxidase-conjugated secondary antibodies, anti-mouse horse radish peroxidase, (1:2000, Bio-Rad, Hercules, Calif.) and goat anti-rabbit polyclonal horse radish peroxidase (1:2000, Abcam, Cambridge, Mass.)) were diluted in blocking buffer and incubated with the blot for 1 hour at room temperature. The secondary antibodies were detected by enhanced chemiluminescence (ECL, Amersham Biosciences, Piscataway, N.J.) and imaged using a Kodak 440 Image Station.

Aurora-A kinase = target: T1, Aurora-A kinase (Homo sapiens, UniProt O14965); test: Aurora-A Kinase Assay (ELISA, Lats2 phosphorylation); assay type: biochemical; details: 50 nM to 50 μM
T1 construct: purchased MBL International (CycLex)
T1 sequence (O14965 1-403): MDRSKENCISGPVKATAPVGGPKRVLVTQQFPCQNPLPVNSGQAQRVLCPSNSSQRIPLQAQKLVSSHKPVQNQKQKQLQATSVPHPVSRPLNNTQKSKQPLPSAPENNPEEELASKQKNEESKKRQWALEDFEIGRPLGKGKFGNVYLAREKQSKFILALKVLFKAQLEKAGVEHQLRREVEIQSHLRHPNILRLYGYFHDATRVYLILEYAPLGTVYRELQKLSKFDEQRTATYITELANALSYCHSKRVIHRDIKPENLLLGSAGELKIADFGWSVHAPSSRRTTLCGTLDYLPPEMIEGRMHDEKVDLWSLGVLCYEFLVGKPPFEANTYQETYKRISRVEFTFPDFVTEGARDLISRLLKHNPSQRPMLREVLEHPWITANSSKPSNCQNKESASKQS
Description: In the assay, the amount of phosphorylated substrate is measured by binding to ST-3B11, an anti-phospho-Lats2 serine83 monoclonal antibody, subsequently incubating with horseradish peroxidase-conjugated anti-mouse IgG, which then catalyzes the conversion of the chromogenic substrate tetra-methylbenzidine (TMB) from a colorless solution to a blue solution. The color is then quantified by spectrophotometry, which reflects the relative amount of Aurora-A activity in the sample.
The assay was then performed according to the manufacturer's instructions using 40 Units/well of recombinant Aurora A enzyme. In the ‘enzyme control’ Aurora A enzyme and the ‘ATP minus control’, ATP was omitted from the reaction mixture. […] The color was quantified using a spectrophotometer (Perkin Elmer HTS 7000 Bio Assay Reader) at 450/535 nm wavelengths.

CHO cells = test: Oregon Green 488-Taxol localization in CHO cells; assay type: cell-based, Chinese hamster; details: 0.5 μM Compound 1
Description: (§1) A fluorescent compound, Oregon Green 488-Taxol (Molecular Probes/Invitrogen), was utilized to determine the distribution of Taxol in CHO cells (FIG. 33). In addition, the targeting of fluorescent Taxol to centrosomes was examined in Compound 1-treated cells (FIG. 34). Non-transfected wild-type CHO cells and HeLa cells were cultured in 2-well chambered cover-slips for 24-48 hours before treatment. Oregon Green 488-Taxol stock solution was made with DMSO. […] Oregon Green 488-Taxol fluorescence in living cells or fixed cells was imaged using a standard filter for FITC with the Nikon TE300 microscope/digital imaging system.

HeLa cells = test: Oregon Green 488-Taxol localization in HeLa cells; assay type: cell-based; details: 0.5 μM Compound 1
Description: as §1

CN(NC(=O)CC(=O)NN(C)C(=S)c1ccccc1)C(=S)c1ccccc1 [Compound 1]
accumulation of ubiquitinated proteins / level of proteasome inhibition compared with Velcade ([1]; 0.5 μM Compound 1 versus Velcade 500 nM (and 5 nM), Western blot): significantly less accumulation of ubiquitinated proteins in cultured cells than Velcade; also recorded: below that of the positive control | increase of ubiquitinated proteins of the cell lysates ([1]; 6 hours of treatment in cell culture): 210.03 | increase of ubiquitinated proteins of the cell lysates ([1]; 24 hours of treatment in cell culture): 243.11 | accumulation of multi-ubiquitinated proteins ([1]; MDA-435 cells, 0.5 μM, 6 and 24 hours): induced the accumulation of multi-ubiquitinated proteins | organization of the actin network (CV-1 cells [2]): dramatic alterations in the cells' actin cytoskeletal networks; also recorded: induced the disappearance of cytosolic actin bundles | changes in the shape of the cell (CV-1 cells [3]; CV-1 cell, 4 hours): shrinkage of cell body relative to FIG. 19D | changes in the shape of live cells (CV-1 cells [3]; CV-1 cells, 4 hours): shrinkage of cell bodies | beginning of cell shrinkage after treatment (CV-1 cells [3]; non-transfected CV-1 cells): 1.5 h | induction of Hsp70 expression (Hsp70; 6 and 24 hours): strongly induced Hsp70 expression | percentage change in Hsp70 expression relative to DMSO control (Hsp70; 6 hours of treatment): 980% | percentage change in Hsp70 expression relative to DMSO control (Hsp70; 24 hours of treatment): 2121% | inhibition of the phosphorylation of Lats2 by Aurora-A kinase (Aurora-A kinase): did not inhibit the phosphorylation of Lats2 by Aurora-A kinase | effect on the accumulation of Taxol (Oregon Green 488-Taxol) at centrosomes (CHO cells): no effect on the accumulation of Taxol at centrosomes | effect on the accumulation of Taxol (Oregon Green 488-Taxol) at centrosomes (HeLa cells): no effect on the accumulation of Taxol at centrosomes
